In patent US9763444B2, “Compositions and methods for repelling blood-sucking and biting insects, ticks and mites” (The United States of America, as represented by the …, priority 2013, dated 2017):

Assays:
Ae. aegypti [1] = assay: Complete Protection Time test on treated cloth (duration of protection); assay type: in vivo, Aedes aegypti; conditions: Dosage 0.75 mg/cm^2 on cloth; for Duration of protection against Ae. aegypti, M-3 Days Protection: subject M-3
Procedure: Bioassay for mosquito repellent activity: Repellency screening test for experimental chemicals were carried out to identify candidates that might be useful repellents. The repellent efficacy was compared to that of the standard repellent, DEET. Experimental compounds were assessed in one of two ways: (1) a range of concentration was evaluated to determine the minimum effective dosage (MED) which was the concentration threshold of where the repellent began to fail and allowed bites, or (2) a predetermined concentration of each repellent was applied to cloth and the activity was evaluated over several days (or in some cases months) (Katritzky, A. R., et al., Proc. Nat. Acad. Sci. (US), 105, 7359-7364 (2008); Katritzky, A. R., et al., Journal of Med. Entomol., 47: 924-938 (2010)). When conducting assays for repellency, a failure point was also predetermined for those measurements. Since experiments described herein used about 500 female mosquitoes per test, the failure point was set at 1% (equal to 5 bites) received during a test interval. From 3 to 5 volunteers participated in the screening of each set of chemicals. Complete Protection Time Test: Complete protection time (CPT) on treated cloth is a method of screening that is used to determine the repellent duration for experimental chemicals that have not been examined for safe use on humans. The standard repellent DEET was used as a positive control as a benchmark by which to compare the repellents. Experimental compounds were prepared in solution by combining 0.075 g of experimental chemical with 1 mL of acetone in a 7.1-mL screwtop glass vial. The same concentration level of DEET was also prepared in this way to serve as a control and a comparison for relative repellency. A 50 cm^2 (5 cm×10 cm) patch of muslin cloth was rolled lengthwise and placed into each of the glass vials and sealed with a screwtop so it soaked up the solution. Just prior to the experiment, the pieces of treated cloth were removed from the vials, affixed to card stock tabs (5 cm×3 cm) with staples, and hung with masking tape on a rack to dry and allowed the volatile acetone to evaporate. Similar to the MED tests, volunteers wore a latex glove over their hands, a nylon stocking over their arm, and then wrapped a plastic Velcro-sealed sleeve over their entire forearm with a 32 cm^2 (4 cm×8 cm) window cut-out to allow mosquitoes to bite through. Dried cloth patches were stretched across the window in the plastic sleeve and held in place with masking tape. Volunteers placed their sleeve-covered arms into a screened cage for a one minute period with approximately 500 female Ae. aegypti mosquitoes that had been preselected for host-seeking behavior using a draw box. A cloth patch that received a 1% bite through level, equal to 5 mosquitoes that bit out of 500 mosquitoes, was considered a failure at that concentration. If 0-4 bites were received, then the treated cloth was still considered to be repellent at that concentration. The duration was recorded as the number of days an experimental chemical received a passing result, with day 0 being the day the sample was first dried. […] As with the tests conducted to determine CPT, volunteers in the study provided informed consent (IRB protocol #636-2005). The protocol was approved by the University of Florida Human Use Institutional Review Board.

Ae. aegypti [2] = assay: MED of varying molar ratios of 2 and DEET (synergistic activity); assay type: in vivo, Aedes aegypti; conditions: Table 6, molar ratio 2:DEET; for Ae. aegypti Minimum Effective Dosage, Average: mean of 3 volunteers; for Ae. aegypti Minimum Effective Dosage, M4: subject M4; for Ae. aegypti Minimum Effective Dosage, M4 / Ae. aegypti Minimum Effective Dosage, M5 / Ae. aegypti Minimum Effective Dosage, M8: highest dose 4.0 mg/cm2; for Ae. aegypti Minimum Effective Dosage, M5: subject M5; for Ae. aegypti Minimum Effective Dosage, M8: subject M8
Procedure: Minimum Effective Dosage (MED) Test: The MED bioassays on treated cloth were a method of screening to determine the minimum amount of a repellent needed to prevent bites. Experimental compounds were prepared in solution by combining 0.15 g of experimental chemical with 2 mL of acetone in a 7.1 mL screwtop glass vial. […] The standard N,N-diethyl-3-methylbenzamide (DEET) was also tested at the same concentration levels to serve as a control and a comparison for relative repellency. A 50 cm^2 (5 cm×10 cm) patch of muslin cloth was rolled lengthwise and placed into each of the glass vials and scaled with a screwtop so it soaked up the solution. Just prior to the experiment, the pieces of treated cloth were removed from the vials, affixed to card stock tabs (5 cm×3 cm) with staples, and hung with masking tape on a rack to dry and allow acetone to evaporate. Volunteers wore a latex glove over their hands, a nylon stocking over their arm, and then wrapped a plastic Velcro-sealed sleeve over their entire forearm with a 32 cm^2 (4 cm×8 cm) window cut-out to allow mosquitoes to bite through. The nylon stocking acted as a barrier between the dried cloth and the skin, an additional precaution with experimental compounds. Dried cloth patches were stretched across the window in the plastic sleeve and held in place with masking tape. Volunteers placed their sleeve-covered arms into a screened cage for a one minute period with approximately 500 female Ae. aegypti mosquitoes that had been preselected for host-seeking behavior using a draw box (Posey, K. H., and C. E. Schreck, Mosquito News, 41: 566-568 (1981)). […] The MED recorded was the lowest passing concentration level tested for the experimental compound. […] All human volunteers in the study provided informed consent to participate of a protocol approved by the University of Florida Human Use Institutional Review Board (IRB #636-2005).
Compound 2 was also evaluated with DEET for synergistic activity. Test samples were prepared at varying molar ratios of DEET: 2 (1:0-1:[…]) and the MED values were evaluated (Table 6).

An. albimanus = assay: Minimum Effective Dosage (MED) test on treated cloth, mosquito repellency; assay type: in vivo, Anopheles albimanus; conditions: Table 4; for An. albimanus Minimum Effective Dosage, Average: mean of 5 volunteers; for An. albimanus Minimum Effective Dosage, M4: subject M4; for An. albimanus Minimum Effective Dosage, M4 / An. albimanus Minimum Effective Dosage, M5 / An. albimanus Minimum Effective Dosage, M8 / An. albimanus Minimum Effective Dosage, M9 / An. albimanus Minimum Effective Dosage, M10: highest concentration 1.500 mg/cm^2; for An. albimanus Minimum Effective Dosage, M5: subject M5; for An. albimanus Minimum Effective Dosage, M8: subject M8; for An. albimanus Minimum Effective Dosage, M9: subject M9; for An. albimanus Minimum Effective Dosage, M10: subject M10

SMILES	Duration of protection, Proportion to DEET (Ae. aegypti [1])	Duration of protection against Ae. aegypti, M-3 Days Protection (Ae. aegypti [1]) [days]	Ae. aegypti Minimum Effective Dosage, Average (Ae. aegypti [2]) [mg/cm^2]	Ae. aegypti Minimum Effective Dosage, M4 (Ae. aegypti [2]) [mg/cm^2]	Ae. aegypti Minimum Effective Dosage, M5 (Ae. aegypti [2]) [mg/cm^2]	Ae. aegypti Minimum Effective Dosage, M8 (Ae. aegypti [2]) [mg/cm^2]	An. albimanus Minimum Effective Dosage, Average (An. albimanus) [mg/cm^2]	An. albimanus Minimum Effective Dosage, M4 (An. albimanus) [mg/cm^2]	An. albimanus Minimum Effective Dosage, M5 (An. albimanus) [mg/cm^2]	An. albimanus Minimum Effective Dosage, M8 (An. albimanus) [mg/cm^2]	An. albimanus Minimum Effective Dosage, M9 (An. albimanus) [mg/cm^2]	An. albimanus Minimum Effective Dosage, M10 (An. albimanus) [mg/cm^2]
CC1(C)C=Cc2c(CO)cccc2O1 [Compound 2]	3.00	6	0.0260	0.0156	0.0313	0.0313	0.234	0.047	0.375	0.187	0.375	0.187
CCN(CC)C(=O)c1cccc(C)c1 [DEET, N,N-diethyl-3-methylbenzamide, reference compound]	1.00	2	0.0313	0.0313	0.0313	0.0313	0.025	0.011	0.047	0.023	0.023	0.023
